Assays:
[1] = Drug uptake in anesthetized cynomolgus monkey brain occipital lobe after 9.5 mins postinjection; assay type: ADME, organism-based, Macaca fascicularis; conditions: in vivo
[2] = Drug uptake in anesthetized cynomolgus monkey brain occipital lobe after 15.5 mins postinjection; assay type: ADME, organism-based, Macaca fascicularis; conditions: in vivo
[3] = Drug uptake in anesthetized cynomolgus monkey brain occipital lobe after 35 mins postinjection; assay type: ADME, organism-based, Macaca fascicularis; conditions: in vivo
[4] = Drug uptake in anesthetized cynomolgus monkey brain occipital lobe after 125 mins postinjection; assay type: ADME, organism-based, Macaca fascicularis; conditions: in vivo
[5] = Drug uptake in anesthetized cynomolgus monkey brain occipital lobe after 225 mins postinjection; assay type: ADME, organism-based, Macaca fascicularis; conditions: in vivo, 3.75 h
[6] = Drug uptake in anesthetized cynomolgus monkey brain frontal lobe after 4.5 mins postinjection; assay type: ADME, organism-based, Macaca fascicularis; conditions: in vivo, 0.075 h
[7] = Drug uptake in anesthetized cynomolgus monkey brain frontal lobe after 15.5 mins postinjection; assay type: ADME, organism-based, Macaca fascicularis; conditions: in vivo
[8] = Drug uptake in anesthetized cynomolgus monkey brain frontal lobe after 85 mins postinjection; assay type: ADME, organism-based, Macaca fascicularis; conditions: in vivo
[9] = Drug uptake in anesthetized cynomolgus monkey brain frontal lobe after 145 mins postinjection; assay type: ADME, organism-based, Macaca fascicularis; conditions: in vivo
[10] = Drug uptake in anesthetized cynomolgus monkey brain frontal lobe after 165 mins postinjection; assay type: ADME, organism-based, Macaca fascicularis; conditions: in vivo, 2.75 h
[11] = Ratio of drug uptake in midbrain to cerebellum in anesthetized cynomolgus monkey after 225 mins postinjection; assay type: ADME, organism-based, Macaca fascicularis; conditions: in vivo, 3.75 h
[12] = Ratio of drug uptake in occipital lobe to cerebellum in anesthetized cynomolgus monkey after 115 mins postinjection; assay type: ADME, organism-based, Macaca fascicularis; conditions: in vivo
[13] = Ratio of drug uptake in occipital lobe to cerebellum in anesthetized cynomolgus monkey after 175 mins postinjection; assay type: ADME, organism-based, Macaca fascicularis; conditions: in vivo
Putamen [14] = assay: Drug uptake in anesthetized cynomolgus monkey brain putamen after 135 mins postinjection; assay type: ADME, organism-based, Macaca fascicularis; conditions: in vivo, 2.25 h
Putamen [15] = assay: Drug uptake in anesthetized cynomolgus monkey brain putamen after 192.5 mins postinjection; assay type: ADME, organism-based, Macaca fascicularis; conditions: in vivo
[16] = Ratio of drug uptake in frontal lobe to cerebellum in anesthetized cynomolgus monkey after 145 mins postinjection; assay type: ADME, organism-based, Macaca fascicularis; conditions: in vivo
Midbrain [17] = assay: Drug uptake in anesthetized cynomolgus monkey brain midbrain after 145 mins postinjection; assay type: ADME, organism-based, Macaca fascicularis; conditions: in vivo
Midbrain [18] = assay: Drug uptake in anesthetized cynomolgus monkey brain midbrain after 182.5 mins postinjection; assay type: ADME, organism-based, Macaca fascicularis; conditions: in vivo
Pons [19] = assay: Drug uptake in anesthetized cynomolgus monkey brain pons after 9.5 mins postinjection; assay type: ADME, organism-based, Macaca fascicularis; conditions: in vivo
Pons [20] = assay: Drug uptake in anesthetized cynomolgus monkey brain pons after 15.5 mins postinjection; assay type: ADME, organism-based, Macaca fascicularis; conditions: in vivo
Pons [21] = assay: Drug uptake in anesthetized cynomolgus monkey brain pons after 135 mins postinjection; assay type: ADME, organism-based, Macaca fascicularis; conditions: in vivo, 2.25 h
Pons [22] = assay: Drug uptake in anesthetized cynomolgus monkey brain pons after 182.5 mins postinjection; assay type: ADME, organism-based, Macaca fascicularis; conditions: in vivo
Pons [23] = assay: Drug uptake in anesthetized cynomolgus monkey brain pons after 187.5 mins postinjection; assay type: ADME, organism-based, Macaca fascicularis; conditions: in vivo, 3.125 h
Pons [24] = assay: Drug uptake in anesthetized cynomolgus monkey brain pons after 202.5 mins postinjection; assay type: ADME, organism-based, Macaca fascicularis; conditions: in vivo, 3.375 h
Medulla [25] = assay: Drug uptake in anesthetized cynomolgus monkey brain medulla after 22.5 mins postinjection; assay type: ADME, organism-based, Macaca fascicularis; conditions: in vivo, 0.375 h
[26] = Ratio of drug uptake in putamen to cerebellum in anesthetized cynomolgus monkey after 165 mins postinjection; assay type: ADME, organism-based, Macaca fascicularis; conditions: in vivo, 2.75 h
Medulla [27] = assay: Drug uptake in anesthetized cynomolgus monkey brain medulla after 235 mins postinjection; assay type: ADME, organism-based, Macaca fascicularis; conditions: in vivo
[28] = Drug uptake in anesthetized cynomolgus monkey brain cerebellum after 22.5 mins postinjection; assay type: ADME, organism-based, Macaca fascicularis; conditions: in vivo, 0.375 h
[29] = Drug uptake in anesthetized cynomolgus monkey brain cerebellum after 27.5 mins postinjection; assay type: ADME, organism-based, Macaca fascicularis; conditions: in vivo
[30] = Drug uptake in anesthetized cynomolgus monkey brain cerebellum after 45 mins postinjection; assay type: ADME, organism-based, Macaca fascicularis; conditions: in vivo, 0.75 h
[31] = Drug uptake in anesthetized cynomolgus monkey brain cerebellum after 65 mins postinjection; assay type: ADME, organism-based, Macaca fascicularis; conditions: in vivo
[32] = Drug uptake in anesthetized cynomolgus monkey brain cerebellum after 165 mins postinjection; assay type: ADME, organism-based, Macaca fascicularis; conditions: in vivo, 2.75 h
Caudate [33] = assay: Drug uptake in anesthetized cynomolgus monkey brain caudate after 1.5 mins postinjection; assay type: ADME, organism-based, Macaca fascicularis, Caudate nucleus; conditions: in vivo, 0.025 h
Caudate [34] = assay: Drug uptake in anesthetized cynomolgus monkey brain caudate after 6.5 mins postinjection; assay type: ADME, organism-based, Macaca fascicularis, Caudate nucleus; conditions: in vivo
Caudate [35] = assay: Drug uptake in anesthetized cynomolgus monkey brain caudate after 45 mins postinjection; assay type: ADME, organism-based, Macaca fascicularis, Caudate nucleus; conditions: in vivo, 0.75 h
Caudate [36] = assay: Drug uptake in anesthetized cynomolgus monkey brain caudate after 95 mins postinjection; assay type: ADME, organism-based, Macaca fascicularis, Caudate nucleus; conditions: in vivo
Caudate [37] = assay: Drug uptake in anesthetized cynomolgus monkey brain caudate after 155 mins postinjection; assay type: ADME, organism-based, Macaca fascicularis, Caudate nucleus; conditions: in vivo
Caudate [38] = assay: Drug uptake in anesthetized cynomolgus monkey brain caudate after 165 mins postinjection; assay type: ADME, organism-based, Macaca fascicularis, Caudate nucleus; conditions: in vivo, 2.75 h
Caudate [39] = assay: Drug uptake in anesthetized cynomolgus monkey brain caudate after 187.5 mins postinjection; assay type: ADME, organism-based, Macaca fascicularis, Caudate nucleus; conditions: in vivo, 3.125 h
Putamen [40] = assay: Drug uptake in anesthetized cynomolgus monkey brain putamen after 0.5 mins postinjection; assay type: ADME, organism-based, Macaca fascicularis; conditions: in vivo
Putamen [41] = assay: Drug uptake in anesthetized cynomolgus monkey brain putamen after 3.5 mins postinjection; assay type: ADME, organism-based, Macaca fascicularis; conditions: in vivo
Putamen [42] = assay: Drug uptake in anesthetized cynomolgus monkey brain putamen after 75 mins postinjection; assay type: ADME, organism-based, Macaca fascicularis; set-up: unit not given here; conditions: in vivo, 1.25 h
Thalamus [43] = assay: Drug uptake in anesthetized cynomolgus monkey brain thalamus after 105 mins postinjection; assay type: ADME, organism-based, Macaca fascicularis; set-up: unit not given here; conditions: in vivo, 1.75 h
Thalamus [44] = assay: Drug uptake in anesthetized cynomolgus monkey brain thalamus after 125 mins postinjection; assay type: ADME, organism-based, Macaca fascicularis; set-up: unit not given here; conditions: in vivo
Thalamus [45] = assay: Drug uptake in anesthetized cynomolgus monkey brain thalamus after 175 mins postinjection; assay type: ADME, organism-based, Macaca fascicularis; set-up: unit not given here; conditions: in vivo
Thalamus [46] = assay: Drug uptake in anesthetized cynomolgus monkey brain thalamus after 192.5 mins postinjection; assay type: ADME, organism-based, Macaca fascicularis; conditions: in vivo
Midbrain [47] = assay: Drug uptake in anesthetized cynomolgus monkey brain midbrain after 1.5 mins postinjection; assay type: ADME, organism-based, Macaca fascicularis; set-up: unit not given here; conditions: in vivo, 0.025 h
Midbrain [48] = assay: Drug uptake in anesthetized cynomolgus monkey brain midbrain after 9.5 mins postinjection; assay type: ADME, organism-based, Macaca fascicularis; set-up: unit not given here; conditions: in vivo
Midbrain [49] = assay: Drug uptake in anesthetized cynomolgus monkey brain midbrain after 22.5 mins postinjection; assay type: ADME, organism-based, Macaca fascicularis; set-up: unit not given here; conditions: in vivo, 0.375 h
Midbrain [50] = assay: Drug uptake in anesthetized cynomolgus monkey brain midbrain after 55 mins postinjection; assay type: ADME, organism-based, Macaca fascicularis; set-up: unit not given here; conditions: in vivo
[51] = Ratio of drug uptake in midbrain to cerebellum in anesthetized cynomolgus monkey after 145 mins postinjection; assay type: ADME, organism-based, Macaca fascicularis; conditions: in vivo

Structure (SMILES): O=C(OCCC[18F])C1C2CCC(CC1c1cccc(/C=C\Br)c1)N2 (stereo unspecified)
- Drug uptake [1]: 3.77
- Drug uptake [2]: 4.29
- Drug uptake [3]: 4.66
- Drug uptake [4]: 3.64
- Drug uptake [5]: 2.54
- Drug uptake [6]: 1.85
- Drug uptake [7]: 3.38
- Drug uptake [8]: 3.32
- Drug uptake [9]: 2.85
- Drug uptake [10]: 2.58
- Ratio [11]: 2.1
- Ratio [12]: 1.1
- Ratio [13]: 1.3
- Drug uptake (Putamen [14]): 4.74
- Drug uptake (Putamen [15]): 3.92
- Ratio [16]: 1
- Drug uptake (Midbrain [17]): 5.18
- Drug uptake (Midbrain [18]): 4.79
- Drug uptake (Pons [19]): 4.14
- Drug uptake (Pons [20]): 4.79
- Drug uptake (Pons [21]): 4.03
- Drug uptake (Pons [22]): 3.71
- Drug uptake (Pons [23]): 3.85
- Drug uptake (Pons [24]): 3.68
- Drug uptake (Medulla [25]): 6.29
- Ratio [26]: 1.7
- Drug uptake (Medulla [27]): 3.34
- Drug uptake [28]: 5.9
- Drug uptake [29]: 5.61
- Drug uptake [30]: 5.11
- Drug uptake [31]: 4.29
- Drug uptake [32]: 2.57
- Drug uptake (Caudate [33]): 0.31
- Drug uptake (Caudate [34]): 3.14
- Drug uptake (Caudate [35]): 5.32
- Drug uptake (Caudate [36]): 5.03
- Drug uptake (Caudate [37]): 4.18
- Drug uptake (Caudate [38]): 4.01
- Drug uptake (Caudate [39]): 3.83
- Drug uptake (Putamen [40]): 0.01
- Drug uptake (Putamen [41]): 2.28
- Drug uptake (Putamen [42]): 5.63
- Drug uptake (Thalamus [43]): 5.06
- Drug uptake (Thalamus [44]): 4.71
- Drug uptake (Thalamus [45]): 4
- Drug uptake (Thalamus [46]): 3.83
- Drug uptake (Midbrain [47]): 0.48
- Drug uptake (Midbrain [48]): 5.04
- Drug uptake (Midbrain [49]): 5.88
- Drug uptake (Midbrain [50]): 6.1
- Ratio [51]: 1.8

Reference: ChEMBL document CHEMBL1151757, “Synthesis, radiosynthesis, and biological evaluation of fluorine-18-labeled 2beta-carbo(fluoroalkoxy)-3beta-(3'-((Z)-2-haloethenyl)phenyl)nortropanes: candidate radioligands for in vivo imaging of the serotonin transporter with positron emission tomography” (J Med Chem, 2008)
